Experimental findings from patent US20040198821A1, “Reduction of hair growth” (priority 2002, published 2004) are described below.

The term inhibition denotes the percentage by which the read-out fell short of the control.

For test [1], the system named is hamster flank organ hair growth (hair mass). As to the kind of experiment: Golden Syrian hamster assay (hair mass assay). It is filed as in vivo. The following applies: for % Inhibition of hamster hair mass / Treated (mg) hair mass: three weeks. From the text: Golden Syrian Hamster Assay
Male intact Golden Syrian hamsters are considered acceptable models for human beard hair growth in that they display oval shaped flank organs, one on each side, each about 8 mm. in major diameter. These organs produce fine light colored hair typical of the animal pelage found on the body. In response to androgens the flank organs produce dark coarse hair similar to male human beard hair. To evaluate the effectiveness of a composition in reducing hair growth, the flank organs of each of a group of hamsters are depilated by applying a thioglycolate based chemical depilatory (Surgex) and/or shaved. To one organ of each animal 10 μl. of vehicle alone once a day is applied, while to the other organ of each animal an equal amount of vehicle containing the compound under evaluation is applied. After three weeks of topical applications (one application per day for five days a week), the flank organs are shaved and the amount of recovered hair (hair mass) from each is weighed. Percent-reduction of hair growth is calculated by subtracting the hair mass (mg) value of the test compound treated side from the hair mass value of the vehicle treated side; the delta value obtained is then divided by the hair mass value of the vehicle treated side, and the resultant number is multiplied by 100.
The above-described assay will be referred to herein as the “Golden Syrian hamster” assay or “hair mass” assay. Preferred compositions provide a reduction in hair growth of at least about 15% and more preferably at least about 35%, when tested in the Golden Syrian hamster assay.

Test [2] relates to Carnitine palmitoyltransferase I (CPT I). As to the kind of experiment: Assay of carnitine palmitoyl transferase-I (CPT-I), Method-I. It is filed as biochemical. The following applies: inhibitor 5 mM, hamster flank organ hair follicle fraction. The procedure:
Assay of Carnitine Palmitoyl Transferase-I (CPT-I)
Two different enzyme assays were used to quantify the activity of CPT-I in hair follicles:
Hair follicle rich fraction from hamster flank organs are homogenized in Buffer A (200 mM mannitol, 10 mM sucrose, 5 mM MOPS pH 7.4). The homogenate is centrifuged at 2000 rpm for 10 minutes. The supernatant is removed and centrifuged at 7000 rpm for 30 minutes. The pellet is resuspended in Buffer B (20 mM Tris-HCl, pH 7.4), 400 mM sucrose, 80 mM KCl, 2 mM EDTA, 2.6 mg/ml fatty acid free BSA). 30 μl of the resuspended pellet is added to 35 μl of DMSO or one of the inhibitors diluted in DMSO so that the final concentration is 5 mM. After a 15 min preincubation, the following are added; 35 μl of 1.7 mM palmitoyl Co-A (34% water and 66% Buffer B), 10 μl of 5 mM L-carnitine (in buffer B with 0.5 μCi ^3H-carnitine). The reaction is then placed in a 37° C. water bath for 30 minutes. At the end of 30 minutes the reaction is stopped by the addition of 150 μl cold 1N HCl. This is followed by the addition of 250μl water to each sample. Butanol (500 μl) is then added to each sample and the samples are centrifuged for 2 minutes at 10,000×g. 300 μl of the butanol layer is transferred to a new centrifuge tube and 250 μl of water is added. 200 μl of the organic phase is added to a scintillation vial containing 12 ml of scintillation cocktail. The radioactivity is determined using a scintillation counter.

In a further test the test system is human hair follicles. As to the kind of experiment: Human hair follicle growth assay. It counts as cell-based. From the text: Human Hair Follicle Growth Assay
Tissue source—Human skin was obtained from a plastic surgeon as a by-product of face-lift procedures. Immediately after removal, the skin was placed in Williams E medium containing antibiotics and refrigerated. The Williams E medium is a commercially obtained medium which has been formulated with essential nutrients for maintaining viability of tissues or cells such as of hair follicle in an in-vitro environment.
Hair Follicle Isolation and Culture—Human hair follicles in growth phase (anagen) were isolated from face-lift tissue under a dissecting scope using a scalpel and watchmakers forceps. The skin was sliced into thin strips exposing 2-3 rows of follicles that could readily be dissected. Follicles were placed into 0.5 ml Williams E medium supplemented with 2 mM L-glutamine, 10 μg/ml insulin, 100 ng/ml hydrocortisone, 100 units penicillin, 0.1 mg/ml streptomycin and 0.25 μg/ml amphotericin B. The follicles were incubated in 24 well plates (1 follicle/well) at 37° C. in an atmosphere of 5% CO2 and 95% air. Hair follicles were video recorded in the 24-well plates under the dissecting scope under a power of 10×. Typically, hair follicle lengths were measured on day 0 (day follicles were placed in culture) and again on day 7. When testing compounds, the compound was included in the culture medium from time 0 and remained in the medium throughout the course of the experiment. The length of hair follicles was assessed using an image analysis software system (Jasc Image Robot).

In a further test the test system is 3-ketoacyl-CoA thiolase. As to the kind of experiment: Assay of 3-ketoacyl-CoA thiolase. It is filed as biochemical, hamster. The following applies: inhibitor 0.5 mM, mitochondria preincubated 5 min. Here is the method: Assay of 3-Ketoacyl-CoA Thiolase:
Aliquots of the mitochondrial suspension (50 μl) were rapidly frozen in dry ice and stored at −80° C. until enzyme activities were assayed as described below. To insure the complete disruption of mitochondria, Triton X-100 (0.06%) was added to all assay mixtures. The activity of thiolase was determined by spectrophotometrically following the disappearance of the Mg^2+-enolate complex at 303 nm. The enzyme assay was performed at 25° C. The reaction mixture contained 0.1 M Tris-HCl (pH 8.2), 25 mM MgCl2, 30 mM KCl, 0.06% Triton X-100, bovine serum albumin (0.13 mg/ml), 70 μM CoA and 33 μM acetoacetyl-CoA. Molar extinction coefficient of […] was used to calculate the rates determined with acetoacetyl-CoA.

Test [3] relates to Carnitine palmitoyltransferase I (CPT I). As to the kind of experiment: Assay of carnitine palmitoyl transferase-I (CPT-I), Method II (isolated mitochondrial fraction). The following applies: inhibitor 1 mM. It counts as biochemical, hamster. Here is the method: The enzyme activity of carnitine palmitoyl transferase-I (CPT-I) was also determined in the isolated mitochondrial fraction. Isolation of mitochondria from the hair follicle rich fraction of flank organs was accomplished by conventional differential centriftigation in 0.25 M sucrose, 10 mM Tris-HCl, pH 7.4 and 1 mM EDTA after tissues were homogenized by polytron homogenizer and Dounce tissue grinder. The pellet obtained at 7000 g was washed two times and finally suspended at 40-80 mg/ml. Carnitine palmitoyltransferase was measured as the rate of conversion of palmitoyl-CoA and [^3H]CH3-L-carnitine into palmitoyl-[^3H]CH3-1-carnitine. The incubation mixture initially contained 12.5 μmol of Tris-HCl (pH 7.2), 15 μmol of KCl, 3.1 μmol of KCN, 6.2 μmol of glutathione, 15 nmol of CoA, […], 2 μmol of ATP (pH 6.8) in volume of 0.425 ml. To this mixture 50 μl of mitochondria were added, followed by preincubation at 37° C. for 10 minutes in the presence or absence of the enzyme inhibitor methyl palmoxirate (dissolved in DMSO). After preincubation, the enzyme reaction was initiated by the addition of 25 μl of 2 mM palmitoyl-CoA and 25 μl of 4 mM [^3H]CH3-L-carnitine. The reaction was stopped after 30 minutes with 1 ml 1N HCl and palmitoyl-[^3H]CH3-L-carnitine was extracted into n-butanol. The radioactivity was determined using scintillation spectrometry.

The mark [4] stands for this setting: 1 mM in culture medium, day 0 to day 7.

For `CCCCCCCCCC(=O)OC(CC(=O)O)C[N+](C)(C)C.[Cl-]` (racemic) [DL-decanoylcarnitine chloride], in test [1] (topical dose 10.0%, vehicle B), the “% Inhibition of hamster hair mass” value is on record as 58 ± 5% and the “Treated (mg) hair mass” value came out at 0.94 ± 0.12 mg.

For the compound `CCCCCCCCCCCCCCC(Br)C(=O)O` (centres unmarked) [2-bromopalmitic acid], in test [2], the “% inhibition of CPT I” value is on record as 91% and the “pmol product /mg protein (CPT I activity)” value (shortened to “pmol product /mg protein”) turned out to be 0.07 pmol product /mg protein.

For the compound `CCCC(CCC)C(=O)O` [2-propylpentanoic acid], in test [1] (topical dose 20.0%, vehicle A), the “% Inhibition of hamster hair mass” value turned out to be 67 ± 3% and the “Treated (mg) hair mass” value is listed as 2.68 ± 0.20 mg.

On to `O=C(O)/C=C/CBr` [4-bromocrotonic acid], for which, in test [1] (topical dose 3.0%, vehicle B), the “% Inhibition of hamster hair mass” value stood at 37 ± 14% and the “Treated (mg) hair mass” value is listed as 1.25 ± 0.37 mg. The “Hair follicle length increase (mm)” value with human hair follicles (0.03 mM in culture medium, day 0 to day 7) was determined as 0.06 ± 0.06 mm. In the test with human hair follicles (Homo sapiens, 0.03 mM in culture medium, day 0 to day 7), this compound registered an inhibition at 30 µM of 95 ± 5%. Further, in the test on 3-ketoacyl-CoA thiolase, the “% inhibition of 3-ketoacyl-CoA thiolase” value is reported as 85.2% and the “nmol product/mg protein (3-ketoacyl-CoA thiolase activity)” value was 0.128 nmol product/mg protein.

Consider `C=CCCC(=O)O` [4-pentenoic acid], for which, in test [1] (topical dose 10.0%, vehicle A), the “% Inhibition of hamster hair mass” value amounted to 46 ± 8% and the “Treated (mg) hair mass” value came out at 1.10 ± 0.12 mg.

In the case of `CC(C)(C)c1ccc(C(=O)O)cc1` [4-tert-butylbenzoic acid], in test [1] (topical dose 10.0%, vehicle C), the “% Inhibition of hamster hair mass” value came out at 46 ± 8% and the “Treated (mg) hair mass” value is listed as 1.10 ± 0.12 mg.

Consider `CCCCc1oc2ccccc2c1C(=O)c1cc(I)c(OCCN(CC)CC)c(I)c1` [amiodarone], for which, in test [1] (topical dose 7.5%, vehicle A), the “% Inhibition of hamster hair mass” value came out at 44 ± 28% and the “Treated (mg) hair mass” value came out at 1.62 ± 0.9 mg.

`C/C=C/C/C=C/CCC(=O)[C@H]1O[C@H]1C(N)=O` [cerulenin]: the “Hair follicle length increase (mm)” value in the test with human hair follicles (10 μM in culture medium, day 0 to day 7) is listed as 0.06 ± 0.05 mm. The compound also displayed an inhibition at 10 µM with human hair follicles (Homo sapiens, 10 μM in culture medium, day 0 to day 7) of 93.7 ± 5.6%. Also, the “inhibition of human hair follicle growth in vitro (in words)” value in the test on human hair follicles (text summary of Table VII) is “can inhibit human hair follicle growth in vitro with marked efficacy”.

`COc1ccc(Cl)cc1C(=O)NCCc1ccc(S(=O)(=O)NC(=O)NC2CCCCC2)cc1` [glynbenclamide]: in test [1] (topical dose 10.0%, vehicle D), the “% Inhibition of hamster hair mass” value is given as 32 ± 8% and the “Treated (mg) hair mass” value was determined as 1.40 ± 0.32 mg. Also, in test [2], the “% inhibition of CPT I” value was found to be 100% and the “pmol product /mg protein” value worked out at 0.00 pmol product /mg protein.

Turning to `CC(C)(COP(=O)(O)OP(=O)(O)OC[C@H]1O[C@@H](n2cnc3c(N)ncnc32)[C@H](O)[C@@H]1OP(=O)(O)O)[C@@H](O)C(=O)NCCC(=O)NCCSC(=O)CC(=O)O` [malonyl CoA], in test [2], the “% inhibition of CPT I” value is 22% and the “pmol product /mg protein” value amounted to 0.59 pmol product /mg protein.

Consider `CCCCCCCCCCCCCCC1(C(=O)OC)CO1` (centres unmarked) [methyl palmoxirate, methyl-2-tetradecylglycidate], for which, in test [1] (topical dose 2.0%, vehicle B), the “% Inhibition of hamster hair mass” value is on record as 66 ± 4% and the “Treated (mg) hair mass” value stood at 0.56 ± 0.12 mg. Besides, the “Hair follicle length increase (mm)” value in the test with human hair follicles (0.1 mM in culture medium, day 0 to day 7) came to 0.54 ± 0.3 mm. In the test with human hair follicles (Homo sapiens, 0.1 mM in culture medium, day 0 to day 7), this compound displayed an inhibition at 100 µM of 57 ± 24%.

Consider `CCCCCCCCC1=C(CCCCCCCC(=O)OC)C1` [methyl sterculate], for which the “reduction of hair growth in vivo (in words)” value in test [1] (text summary of Table VIII) is “can reduce hair growth both in vivo and in vitro”. In test [1] (topical dose 2.5%, vehicle E), the “% Inhibition of hamster hair mass” value stood at 45.1 ± 6.8% and the “Treated (mg) hair mass” value was determined as 1.4 ± 0.2 mg. Also, in the test with human hair follicles (setting [4]), the “% Inhibition of human hair follicle growth” value came out at 59.3 ± 0.2% and the “Hair follicle length increase (mm)” value is on record as 0.59 ± 0.29 mm. Further, the “reduction of hair growth in vitro (in words)” value with human hair follicles (text summary of Table IX) is “can reduce hair growth both in vivo and in vitro”.

On to `N[C@H](C(=O)O)c1ccc(O)cc1` [oxfenicine], for which, in test [3], the “% inhibition of CPT I” value is listed as 44% and the “pmol product /mg protein” value is reported as 0.64 pmol product/mg protein.

As for `CCCCCCCCCCCCCCCC(=O)OC(CC(=O)[O-])C[N+](C)(C)C` (stereo not drawn) [palmitoyl DL carnitine], in test [1] (topical dose 10.0%, vehicle A), the “% Inhibition of hamster hair mass” value was 73 ± 15% and the “Treated (mg) hair mass” value amounted to 0.29 ± 0.1 mg.

In the case of `C1CCC(C(CC2CCCCN2)C2CCCCC2)CC1` (centres unmarked) [perhexiline], in test [1] (topical dose 2.5%, vehicle B), the “% Inhibition of hamster hair mass” value amounted to 23 ± 25% and the “Treated (mg) hair mass” value came to 2.28 ± 0.77 mg. Besides, in test [2], the “% inhibition of CPT I” value is recorded as 86% and the “pmol product /mg protein” value is 0.10 pmol product /mg protein.

As for `CCCCNC(=O)NS(=O)(=O)c1ccc(C)cc1` [tolbutamide], in test [2], the “% inhibition of CPT I” value was 90% and the “pmol product /mg protein” value stood at 0.07 pmol product /mg protein.
